Assay results: patent US20150005347A1, “NITROGEN-CONTAINING HETEROCYCLIC DERIVATIVE HAVING 2-IMINO GROUP AND PEST CONTROL AGENT INCLUDING THE SAME” (MEIJI SEIKA PHARMA CO., LTD., priority 2012, published 2015)
Where two headings read alike, the source gives them in different places.

Key:
Assay type in all cases: in vivo
Plutella xylostella = Plutella xylostella control test, cabbage leaf disk foliar spray; conditions: for % Mortality, Test Example1 Plutella xylostella: foliar treatment
Protocol: Test Example 1 Plutella xylostella Control Test
(§1) A leaf disk having a diameter of 5.0 cm was cut out from a cabbage in pot culture, and a drug solution of the compound of the present invention at a predetermined concentration, which had been prepared so as to be a 50% acetone water (0.05% Tween20 available), was sprayed to the leaf disk. After an air drying process, second instar larvae were released thereto. Thereafter, the larvae were left to stand in a thermostatic chamber (16 hours of light period-8 hours of dark period) at 25° C. […] Test in duplicate.
mortality larvae(%)={number of dead larvae/(number of survived larvae+number of dead larvae)}×100

Spodoptera litura = experiment: Pest control test against Spodoptera litura, cabbage leaf disk foliar spray; conditions: for % Mortality, Test Example2 Spodoptera litura: foliar treatment, 100 ppm; for mortality at 500 ppm: Spodoptera litura, 72 h, read-out: mortality of larvae
Protocol: Test Example 2 Pest Control Test Against Spodoptera litura
as §1, with “third” for “second”
(§2) Mortality of larvae(%)={number of dead larvae/(number of survived larvae+number of dead larvae)}×100

Aphis gossypii = experiment: Pest control test of Aphis gossypii, cucumber leaf disk foliar spray; conditions: foliar treatment
Protocol: Test Example 3 Pest Control Test of Aphis gossypii
as §1, with “2.0” for “5.0”, “cucumber” for “cabbage”, “first” for “second”
as §2

[1] = tested on: Frankliniella occidentalis; experiment: Pest control test of Frankliniella occidentalis, kidney bean leaf disk foliar spray; conditions: for % Mortality, Test Example7 Frankliniella occidentalis: foliar treatment
From the text: Test Example 7 Pest Control Test of Frankliniella occidentalis
as §1, with “2.8” for “5.0”, “kidney bean” for “cabbage”, “first” for “second”
as §2

[2] = tested on: Trigonotylus caelestialium; experiment: Pest control test of Trigonotylus caelestialium, wheat seedling dipping
From the text: Test Example 8 Pest Control Test of Trigonotylus caelestialium
Wheat seedling leaves and stems four days after the dissemination of seedlings were dipped for 30 seconds in a drug solution of the compound of the present invention at a predetermined concentration, which had been prepared so as to be a 50% acetone water (0.05% Tween20 available). After an air drying process, the wheat seedling leaves and stems were placed into a glass tube, and two second instar larvae of Trigonotylus caelestialium were released to the same glass tube. After the larvae were released, the tube was lidded to leave the larvae to stand in a thermostatic chamber at 25° C. In order to supply water to the wheat during the test, water was given to the wheat from the bottom of the glass tube.
as §2

Laodelphax striatella = experiment: Pest control test of Laodelphax striatella, soil irrigation treatment of rice seedling; conditions: for % Mortality, Test Example 10 Laodelphax striatella: soil irrigation treatment; for mortality of larvae: soil irrigation, 0.05 mg/seedling, three days after release
From the text: <Soil Irrigation Treatment Test>
Test Example 10 Pest Control Test of Laodelphax striatellua
(§3) A rice seedling in pot culture was subjected to soil irrigation treatment with a drug solution of the compound of the present invention at a predetermined concentration, which had been prepared so as to be a 10% acetone water. Three days after the treatment, ten second instar larvae of Laodelphax striatella were each released thereto. Thereafter, the larvae were left to stand in a thermostatic chamber (16 hours of light period-8 hours of dark period) at 25° C. […] The test was performed in duplicate.
as §2

Nilaparvata lugens = experiment: Pest control test of Nilaparvata lugens, soil irrigation treatment; conditions: for % Mortality, Test Example 12 Nilaparvata lugens: soil irrigation treatment; for mortality of larvae: soil irrigation, 0.05 mg/seedling, three days after release
Protocol: Test Example 12 Pest Control Test of Nilaparvata lugens
as §3, with “Nilaparvata lugens” for “Laodelphax striatella”
as §2

[3] = tested on: Nilaparvata lugens exhibiting drug resistance to imidacloprid; conditions: soil irrigation; for Insecticidal effects against Nilaparvata lugens (mortality of larvae %), Drug resistant populations three days after the treatment: Rate 0.05 mg/pot; for insecticidal effects against drug resistant Nilaparvata lugens: imidacloprid-resistant; for mortality of larvae against drug resistant populations compared with susceptible populations of Nilaparvata lugens: imidacloprid-resistant vs susceptible
Protocol: Test Example 18 Pest Control Test of Drug-Resistant Nilaparvata lugens
as §3, with “Three days after the treatment, ten second instar larvae of Laodelphax striatella were each released thereto.” left out
as §2
(§4) Further, for the origin of test pests, bugs collected outdoors within the Kumamoto prefecture in 2007 as the drug resistant Nilaparvata lugens, and bugs collected within the Kagoshima prefecture and then successively reared indoors for a long time as the imidacloprid susceptible populations of Nilaparvata lugens were used.

[4] = tested on: imidacloprid susceptible populations of Nilaparvata lugens; experiment: Soil irrigation test, imidacloprid susceptible populations of Nilaparvata lugens; conditions: Rate 0.05 mg/pot
Protocol: as §3, with “Three days after the treatment, ten second instar larvae of Laodelphax striatella were each released thereto.” left out
as §2
Further, for comparison, the test against some population of Nilaparvata lugens which is highly susceptible to imidacloprid was performed by the same method as described above, and the results thereof are shown in Table 43.
as §4

Musca domestica = experiment: Pest control test of Musca domestica adults, sucrose pledget; conditions: 50 ppm in 40% sucrose liquid; four days after release
Protocol: Test Example 21 Pest Control Test of Musca domestica
A drug solution of the compound of the present invention, which had been adjusted to be 50 ppm with a 40% sucrose liquid, was adsorbed on a pledget, and the pledget was put into a vial. Two adults reared indoors were released thereto. Thereafter, the adults were left to stand indoors at room temperature of 25° C. […] When two adults were all agonized in death, it was judged to be effective.

FC(F)C(=S)N=c1ccccn1Cc1ccc(Cl)nc1 [Compound 1-21]
% Mortality, Test Example1 Plutella xylostella (Plutella xylostella; 20 ppm): 10% | % Mortality, Test Example1 Plutella xylostella (Plutella xylostella; 100 ppm): 80% | % Mortality, Test Example2 Spodoptera litura (Spodoptera litura): 55% | % Mortality, Test Example3 Aphis gossypii (Aphis gossypii; 0.313 ppm): 55% | % Mortality, Test Example3 Aphis gossypii (Aphis gossypii; 1.25 ppm): 100% | % Mortality, Test Example3 Aphis gossypii (Aphis gossypii; 5 ppm): 100% | % Mortality, Test Example3 Aphis gossypii (Aphis gossypii; 20 ppm): 100% | % Mortality, Test Example3 Aphis gossypii (Aphis gossypii; 100 ppm): 100% | % Mortality, Test Example7 Frankliniella occidentalis ([1]; 20 ppm): 80% | % Mortality, Test Example7 Frankliniella occidentalis ([1]; 100 ppm): 90% | % Mortality, Test Example8 Trigonotylus caelestialium ([2]; 2 ppm): 67% | % Mortality, Test Example8 Trigonotylus caelestialium ([2]; 10 ppm): 100% | % Mortality, Test Example8 Trigonotylus caelestialium ([2]; 50 ppm): 100% | % Mortality, Test Example 10 Laodelphax striatella (Laodelphax striatella; 0.01 mg/pot): 20% | % Mortality, Test Example 10 Laodelphax striatella (Laodelphax striatella; 0.05 mg/pot): 100% | % Mortality, Test Example 12 Nilaparvata lugens (Nilaparvata lugens; 0.01 mg/pot): 10% | % Mortality, Test Example 12 Nilaparvata lugens (Nilaparvata lugens; 0.05 mg/pot): 85% | Insecticidal effects against Nilaparvata lugens (mortality of larvae %), Drug resistant populations three days after the treatment [3]: 50% | insecticidal effects against drug resistant Nilaparvata lugens [3]: high insecticidal effects | mortality of larvae against drug resistant populations compared with susceptible populations of Nilaparvata lugens [3]: equivalent mortality of larvae | Insecticidal effects against Nilaparvata lugens (mortality of larvae %), Susceptible populations three days after the treatment [4]: 67% | activity against adults (effective when two adults were all agonized in death) (Musca domestica): all the adults are agonized in death

Fc1ccc(Cn2ccccc2=NC(=S)C(F)(F)F)cn1 [Compound 3-20]
% Mortality, Test Example1 Plutella xylostella (Plutella xylostella; 20 ppm): 0% | % Mortality, Test Example1 Plutella xylostella (Plutella xylostella; 100 ppm): 55% | % Mortality, Test Example2 Spodoptera litura (Spodoptera litura): 30% | % Mortality, Test Example3 Aphis gossypii (Aphis gossypii; 0.313 ppm): 15% | % Mortality, Test Example3 Aphis gossypii (Aphis gossypii; 1.25 ppm): 100% | % Mortality, Test Example3 Aphis gossypii (Aphis gossypii; 5 ppm): 100% | % Mortality, Test Example3 Aphis gossypii (Aphis gossypii; 20 ppm): 100% | % Mortality, Test Example3 Aphis gossypii (Aphis gossypii; 100 ppm): 100% | % Mortality, Test Example7 Frankliniella occidentalis ([1]; 100 ppm): 45% | % Mortality, Test Example8 Trigonotylus caelestialium ([2]; 2 ppm): 50% | % Mortality, Test Example8 Trigonotylus caelestialium ([2]; 10 ppm): 100% | % Mortality, Test Example8 Trigonotylus caelestialium ([2]; 50 ppm): 100% | % Mortality, Test Example 10 Laodelphax striatella (Laodelphax striatella; 0.05 mg/pot): 90% | % Mortality, Test Example 12 Nilaparvata lugens (Nilaparvata lugens; 0.01 mg/pot): 100% | % Mortality, Test Example 12 Nilaparvata lugens (Nilaparvata lugens; 0.05 mg/pot): 100% | Insecticidal effects against Nilaparvata lugens (mortality of larvae %), Drug resistant populations three days after the treatment [3]: 100% | insecticidal effects against drug resistant Nilaparvata lugens [3]: high insecticidal effects | mortality of larvae against drug resistant populations compared with susceptible populations of Nilaparvata lugens [3]: equivalent mortality of larvae | Insecticidal effects against Nilaparvata lugens (mortality of larvae %), Susceptible populations three days after the treatment [4]: 100% | activity against adults (effective when two adults were all agonized in death) (Musca domestica): all the adults are agonized in death

CCOC(=O)NC(=S)/N=c1\ccccn1Cc1ccc(Cl)nc1 [Comparative Example 9, 1-[1-((6-chloropyridine-3-yl)methyl)pyridine-2(1H)-ylidene]-3-ethoxycarbonylthiourea, reference compound]
mortality at 500 ppm (Spodoptera litura; foliar treatment at 500 ppm, third instar larvae, three days after release): 11% | mortality of larvae (Laodelphax striatella): 0% | mortality of larvae (Nilaparvata lugens): 0% | Insecticidal effects against Nilaparvata lugens (mortality of larvae %), Susceptible populations three days after the treatment [4]: 0%

Fc1cc(Cn2ccccc2=NC(=S)C(F)(F)F)cnc1Cl [Compound 5-20]
% Mortality, Test Example1 Plutella xylostella (Plutella xylostella; 5 ppm): 20% | % Mortality, Test Example1 Plutella xylostella (Plutella xylostella; 20 ppm): 100% | % Mortality, Test Example1 Plutella xylostella (Plutella xylostella; 100 ppm): 100% | % Mortality, Test Example2 Spodoptera litura (Spodoptera litura): 60% | % Mortality, Test Example3 Aphis gossypii (Aphis gossypii; 1.25 ppm): 55% | % Mortality, Test Example3 Aphis gossypii (Aphis gossypii; 5 ppm): 100% | % Mortality, Test Example7 Frankliniella occidentalis ([1]; 100 ppm): 50% | % Mortality, Test Example8 Trigonotylus caelestialium ([2]; 10 ppm): 17% | % Mortality, Test Example 10 Laodelphax striatella (Laodelphax striatella; 0.005 mg/pot): 26% | % Mortality, Test Example 10 Laodelphax striatella (Laodelphax striatella; 0.01 mg/pot): 52% | % Mortality, Test Example 10 Laodelphax striatella (Laodelphax striatella; 0.05 mg/pot): 95% | % Mortality, Test Example 12 Nilaparvata lugens (Nilaparvata lugens; 0.01 mg/pot): 90% | % Mortality, Test Example 12 Nilaparvata lugens (Nilaparvata lugens; 0.05 mg/pot): 100% | Insecticidal effects against Nilaparvata lugens (mortality of larvae %), Drug resistant populations three days after the treatment [3]: 100% | insecticidal effects against drug resistant Nilaparvata lugens [3]: high insecticidal effects | mortality of larvae against drug resistant populations compared with susceptible populations of Nilaparvata lugens [3]: equivalent mortality of larvae | Insecticidal effects against Nilaparvata lugens (mortality of larvae %), Susceptible populations three days after the treatment [4]: 91% | activity against adults (effective when two adults were all agonized in death) (Musca domestica): all the adults are agonized in death

CCNC(=S)N=c1ccccn1Cc1ccc(Cl)nc1 [Comparative Example 8, 1-[1-((6-chloropyridine-3-yl)methyl)pyridine-2(1H)-ylidene]-3-ethylthiourea, reference compound]
mortality at 500 ppm (Plutella xylostella; Plutella xylostella, foliar, 72 h, read-out: mortality of larvae): 20% | mortality at 500 ppm (Spodoptera litura; foliar): 10% | mortality at 500 ppm ([1]; Frankliniella occidentalis, foliar, 72 h, read-out: mortality of larvae): 15% | mortality of larvae (Laodelphax striatella): 0% | mortality of larvae (Nilaparvata lugens): 15% | Insecticidal effects against Nilaparvata lugens (mortality of larvae %), Susceptible populations three days after the treatment [4]: 15%

FC(F)(F)C(F)(F)C(=S)N=c1ccccn1Cc1ccc(Cl)nc1 [Compound 1-23]
Insecticidal effects against Nilaparvata lugens (mortality of larvae %), Drug resistant populations three days after the treatment [3]: 70% | insecticidal effects against drug resistant Nilaparvata lugens [3]: high insecticidal effects | mortality of larvae against drug resistant populations compared with susceptible populations of Nilaparvata lugens [3]: equivalent mortality of larvae | Insecticidal effects against Nilaparvata lugens (mortality of larvae %), Susceptible populations three days after the treatment [4]: 85% | activity against adults (effective when two adults were all agonized in death) (Musca domestica): all the adults are agonized in death
